Source: ChEMBL document CHEMBL3885861, “Open TG-GATES”

Organism: Rattus norvegicus
Assay: Open TG-GATES - Regimen: Daily Repeat
Type: toxicity, organism-based, Sprague-Dawley
Parameters: regimen Daily Repeat, gender Male, age 6 weeks
Details: in vivo, po, 0 mg/kg, route gavage, dose level Control; for APTT / Bas / Eos / Fbg / Hb / Ht / Lym / MCH / MCHC / MCV / Mono / Neu / PT / Plat / RBC / Ret / WBC: tissue Blood; for KIDNEY_L / KIDNEY_R / KIDNEY_TOTAL: tissue Kidney; for LIVER: tissue Liver; for A/G / ALP / ALT / AST / BUN / CRE / Ca / Cl / DBIL / GLC / IP / K / LDH / Na / PL / RALB / TBIL / TC / TG / TP / gamma-GTP: tissue Plasma

`CC(C)NNC(=O)c1ccncc1` [IPRONIAZID] showed a TERMINAL_BW (72 h, time 3 day) of 213.5 g, an APTT (72 h, time 3 day) of 21.8 s and a Bas (72 h, time 3 day) of 0%. The Eos (72 h, time 3 day) was 1%, the Fbg (72 h, time 3 day) was 301.6 mg/dL and the Hb (72 h, time 3 day) was 13.2 g/dL. For the same compound, the Ht (72 h, time 3 day) was 38.2%, the Lym (72 h, time 3 day) was 78.8% and the MCH (72 h, time 3 day) was 21.2 pg. For the same compound, the MCHC (72 h, time 3 day) was 34.5%, the MCV (72 h, time 3 day) was 61.3 fL and the Mono (72 h, time 3 day) was 2.8%. The Neu (72 h, time 3 day) was 16.4%, the PT (72 h, time 3 day) was 16 s and the Plat (72 h, time 3 day) was 127.9 x10_4/uL. For the same compound, the RBC (72 h, time 3 day) was 622.8 x10_4/ul, the Ret (72 h, time 3 day) was 7.5% and the WBC (72 h, time 3 day) was 99.6 x10_2/uL. The KIDNEY_L (72 h, time 3 day) was 1 g, the KIDNEY_R (72 h, time 3 day) was 1 g and the KIDNEY_TOTAL (72 h, time 3 day) was 1.9 g. For the same compound, the LIVER (72 h, time 3 day) was 10.5 g, the A/G (72 h, time 3 day) was 1.3 and the ALP (72 h, time 3 day) was 1294.6 IU/L. It also gave an ALT (72 h, time 3 day) of 41 IU/L, an AST (72 h, time 3 day) of 70.2 IU/L and a BUN (72 h, time 3 day) of 18 mg/dL. It also gave a CRE (72 h, time 3 day) of 0.2 mg/dL, a Ca (72 h, time 3 day) of 10.8 mg/dL and a Cl (72 h, time 3 day) of 106.6 meq/L. It also gave a DBIL (72 h, time 3 day) of 0 mg/dL, a GLC (72 h, time 3 day) of 188.8 mg/dL and an IP (72 h, time 3 day) of 7.2 mg/dL. For the same compound, the K (72 h, time 3 day) was 4.6 meq/L, the LDH (72 h, time 3 day) was 261.8 IU/L and the Na (72 h, time 3 day) was 141.8 meq/L. It also gave a PL (72 h, time 3 day) of 159.6 mg/dL, an RALB (72 h, time 3 day) of 3.1 g/dL and a TBIL (72 h, time 3 day) of 0.004 mg/dL. The TC (72 h, time 3 day) was 83.8 mg/dL, the TG (72 h, time 3 day) was 100.4 mg/dL and the TP (72 h, time 3 day) was 5.5 g/dL. It also gave a gamma-GTP (72 h, time 3 day) of 1 IU/L, a TERMINAL_BW ([…], time 7 day) of 239.8 g and a TERMINAL_BW ([…], time 14 day) of 277.2 g. For the same compound, the TERMINAL_BW ([…], time 28 day) was 363.7 g, the APTT ([…], time 7 day) was 22.5 s and the Bas ([…], time 7 day) was 0%. The Eos ([…], time 7 day) was 0.8%, the Fbg ([…], time 7 day) was 304.6 mg/dL and the Hb ([…], time 7 day) was 13.5 g/dL. It also gave a Ht ([…], time 7 day) of 37.7%, a Lym ([…], time 7 day) of 82.4% and an MCH ([…], time 7 day) of 21 pg. The MCHC ([…], time 7 day) was 35.7%, the MCV ([…], time 7 day) was 58.6 fL and the Mono ([…], time 7 day) was 2.2%. It also gave a Neu ([…], time 7 day) of 13.8%, a PT ([…], time 7 day) of 15.4 s and a Plat ([…], time 7 day) of 110.1 x10_4/uL. For the same compound, the RBC ([…], time 7 day) was 642.8 x10_4/ul, the Ret ([…], time 7 day) was 6.4% and the WBC ([…], time 7 day) was 110.4 x10_2/uL. For the same compound, the APTT ([…], time 14 day) was 22.8 s, the Bas ([…], time 14 day) was 0% and the Eos ([…], time 14 day) was 1%. It also gave a Fbg ([…], time 14 day) of 301.2 mg/dL, a Hb ([…], time 14 day) of 13.6 g/dL and a Ht ([…], time 14 day) of 39.5%. It also gave a Lym ([…], time 14 day) of 82.8%, an MCH ([…], time 14 day) of 20 pg and an MCHC ([…], time 14 day) of 34.4%. For the same compound, the MCV ([…], time 14 day) was 58.1 fL, the Mono ([…], time 14 day) was 2.4% and the Neu ([…], time 14 day) was 13.4%. It also gave a PT ([…], time 14 day) of 16 s, a Plat ([…], time 14 day) of 110.6 x10_4/uL and an RBC ([…], time 14 day) of 679.4 x10_4/ul. The Ret ([…], time 14 day) was 5.1%, the WBC ([…], time 14 day) was 106.6 x10_2/uL and the APTT ([…], time 28 day) was 25.2 s. For the same compound, the Bas ([…], time 28 day) was 0%, the Eos ([…], time 28 day) was 0.8% and the Fbg ([…], time 28 day) was 318.6 mg/dL. It also gave a Hb ([…], time 28 day) of 14.5 g/dL, a Ht ([…], time 28 day) of 40.9% and a Lym ([…], time 28 day) of 81.6%. It also gave an MCH ([…], time 28 day) of 19.7 pg, an MCHC ([…], time 28 day) of 35.6% and an MCV ([…], time 28 day) of 55.2 fL. The Mono ([…], time 28 day) was 1.8%, the Neu ([…], time 28 day) was 14.6% and the PT ([…], time 28 day) was 15.8 s. The Plat ([…], time 28 day) was 108.3 x10_4/uL, the RBC ([…], time 28 day) was 741.4 x10_4/ul and the Ret ([…], time 28 day) was 3%. The WBC ([…], time 28 day) was 103.1 x10_2/uL, the KIDNEY_L ([…], time 7 day) was 1 g and the KIDNEY_R ([…], time 7 day) was 1 g. It also gave a KIDNEY_TOTAL ([…], time 7 day) of 2 g, a KIDNEY_L ([…], time 14 day) of 1.1 g and a KIDNEY_R ([…], time 14 day) of 1.1 g. The KIDNEY_TOTAL ([…], time 14 day) was 2.1 g, the KIDNEY_L ([…], time 28 day) was 1.4 g and the KIDNEY_R ([…], time 28 day) was 1.4 g. The KIDNEY_TOTAL ([…], time 28 day) was 2.8 g, the LIVER ([…], time 7 day) was 11.2 g and the LIVER ([…], time 14 day) was 11.8 g. It also gave an LIVER ([…], time 28 day) of 15.8 g, an A/G ([…], time 7 day) of 1.1 and an ALP ([…], time 7 day) of 1693 IU/L. The ALT ([…], time 7 day) was 46.6 IU/L, the AST ([…], time 7 day) was 77.8 IU/L and the BUN ([…], time 7 day) was 19.2 mg/dL. The CRE ([…], time 7 day) was 0.2 mg/dL, the Ca ([…], time 7 day) was 10.6 mg/dL and the Cl ([…], time 7 day) was 106.4 meq/L. For the same compound, the DBIL ([…], time 7 day) was 0 mg/dL, the GLC ([…], time 7 day) was 198.4 mg/dL and the IP ([…], time 7 day) was 6.8 mg/dL. The K ([…], time 7 day) was 4 meq/L, the LDH ([…], time 7 day) was 220.4 IU/L and the Na ([…], time 7 day) was 141.2 meq/L. For the same compound, the PL ([…], time 7 day) was 156.2 mg/dL, the RALB ([…], time 7 day) was 2.9 g/dL and the TBIL ([…], time 7 day) was 0.002 mg/dL. For the same compound, the TC ([…], time 7 day) was 77.4 mg/dL, the TG ([…], time 7 day) was 110.6 mg/dL and the TP ([…], time 7 day) was 5.5 g/dL. It also gave a gamma-GTP ([…], time 7 day) of 1.2 IU/L, an A/G ([…], time 14 day) of 1.1 and an ALP ([…], time 14 day) of 1298.6 IU/L. The ALT ([…], time 14 day) was 35.8 IU/L, the AST ([…], time 14 day) was 68.4 IU/L and the BUN ([…], time 14 day) was 20.2 mg/dL. The CRE ([…], time 14 day) was 0.2 mg/dL, the Ca ([…], time 14 day) was 10.5 mg/dL and the Cl ([…], time 14 day) was 107.4 meq/L. The DBIL ([…], time 14 day) was 0 mg/dL, the GLC ([…], time 14 day) was 187.4 mg/dL and the IP ([…], time 14 day) was 5.9 mg/dL. The K ([…], time 14 day) was 4 meq/L, the LDH ([…], time 14 day) was 176.8 IU/L and the Na ([…], time 14 day) was 141.8 meq/L. It also gave a PL ([…], time 14 day) of 135.2 mg/dL, an RALB ([…], time 14 day) of 3 g/dL and a TBIL ([…], time 14 day) of 0.006 mg/dL. It also gave a TC ([…], time 14 day) of 66.8 mg/dL, a TG ([…], time 14 day) of 126.6 mg/dL and a TP ([…], time 14 day) of 5.7 g/dL. It also gave a gamma-GTP ([…], time 14 day) of 1.6 IU/L, an A/G ([…], time 28 day) of 1.1 and an ALP ([…], time 28 day) of 1067.8 IU/L. The ALT ([…], time 28 day) was 38.8 IU/L, the AST ([…], time 28 day) was 65.4 IU/L and the BUN ([…], time 28 day) was 17.4 mg/dL. It also gave a CRE ([…], time 28 day) of 0.2 mg/dL, a Ca ([…], time 28 day) of 10.7 mg/dL and a Cl ([…], time 28 day) of 105.2 meq/L. It also gave a DBIL ([…], time 28 day) of 0.002 mg/dL, a GLC ([…], time 28 day) of 190.8 mg/dL and an IP ([…], time 28 day) of 6.6 mg/dL. The K ([…], time 28 day) was 4 meq/L, the LDH ([…], time 28 day) was 171.2 IU/L and the Na ([…], time 28 day) was 142 meq/L. The PL ([…], time 28 day) was 142.4 mg/dL, the RALB ([…], time 28 day) was 3.2 g/dL and the TBIL ([…], time 28 day) was 0.014 mg/dL. It also gave a TC ([…], time 28 day) of 70.8 mg/dL, a TG ([…], time 28 day) of 137.6 mg/dL and a TP ([…], time 28 day) of 6.1 g/dL. For the same compound, the gamma-GTP ([…], time 28 day) was 1.6 IU/L.
